These results are taken from US6441019B2, “Cyclocarbamate and cyclic amide derivatives” (Wyeth, priority 1999, dated 2002).

Molecules are shown by their SMILES.

In turn, `CC1(C)OC(=O)Nc2sc(-c3cccc(Cl)c3)cc21` [Example 1, 6-(3-chlorophenyl)-1,4-dihydro-4,4-dimethyl-2H-thieno [2,3-d][1,3]oxazine-2-one] registered a melting point of 149 to 150 °C.

With `CC1(C)OC(=O)Nc2cc(-c3cccc(Cl)c3)sc21` [Example 2, 6-(3-chlorophenyl)-1,4-dihydro-4,4-dimethyl-2H-thieno[3,2-d][1,3]oxazine-2-one], the melting point lay in the range of 123 to 125 °C.

The melting point is the temperature, or range, at which the solid turns liquid.
